From the NIST ThermoML archive (doi:10.1021/je800999s)
± gives the expanded uncertainty stated by the source.

Assay: molar heat capacity at constant pressure; xn = mol fraction of the nth substance listed
Conditions: 101 kPa, Liquid, Large sample (1 g) DSC

O=CN1CCOCC1 [N-formylmorpholine] + O
molar heat capacity at constant pressure [J/K/mol]
Conditions | x1 = 0.0997 | x1 = 0.1998 | x1 = 0.2992 | x1 = 0.3993 | x1 = 0.4975 | x1 = 0.5978 | x1 = 0.6954 | x1 = 0.7988 | x1 = 0.8946 | x1 = 1
303.15 K | 86 ± 4 | 98 ± 4 | 111 ± 5 | 123 ± 5 | 134 ± 6 | 145 ± 6 | 154 ± 7 | 164 ± 7 | 174 ± 7 | 185 ± 8
308.15 K | 86 ± 4 | 99 ± 4 | 111 ± 5 | 124 ± 5 | 135 ± 6 | 146 ± 6 | 156 ± 7 | 166 ± 7 | 176 ± 7 | 186 ± 8
313.15 K | 87 ± 4 | 100 ± 4 | 113 ± 5 | 125 ± 5 | 137 ± 6 | 148 ± 6 | 158 ± 7 | 168 ± 7 | 178 ± 8 | 188 ± 8
318.15 K | 87 ± 4 | 100 ± 4 | 114 ± 5 | 126 ± 5 | 138 ± 6 | 149 ± 6 | 159 ± 7 | 169 ± 7 | 179 ± 8 | 189 ± 8
323.15 K | 88 ± 4 | 101 ± 4 | 115 ± 5 | 127 ± 5 | 140 ± 6 | 150 ± 6 | 161 ± 7 | 171 ± 7 | 181 ± 8 | 191 ± 8
328.15 K | 88 ± 4 | 102 ± 4 | 116 ± 5 | 129 ± 6 | 141 ± 6 | 152 ± 6 | 162 ± 7 | 173 ± 7 | 183 ± 8 | 193 ± 8
333.15 K | 89 ± 4 | 103 ± 4 | 117 ± 5 | 130 ± 6 | 142 ± 6 | 153 ± 7 | 164 ± 7 | 174 ± 7 | 184 ± 8 | 195 ± 8
338.15 K | 90 ± 4 | 104 ± 4 | 118 ± 5 | 131 ± 6 | 144 ± 6 | 155 ± 7 | 166 ± 7 | 176 ± 7 | 186 ± 8 | 197 ± 8
343.15 K | 91 ± 4 | 106 ± 5 | 120 ± 5 | 133 ± 6 | 146 ± 6 | 157 ± 7 | 168 ± 7 | 178 ± 8 | 189 ± 8 | 200 ± 9
348.15 K | 91 ± 4 | 107 ± 5 | 121 ± 5 | 135 ± 6 | 147 ± 6 | 158 ± 7 | 169 ± 7 | 180 ± 8 | 190 ± 8 | 201 ± 9
353.15 K | 92 ± 4 | 107 ± 5 | 122 ± 5 | 135 ± 6 | 148 ± 6 | 159 ± 7 | 170 ± 7 | 181 ± 8 | 191 ± 8 | 202 ± 9

CN1CCCC1=O [N-methylpyrrolidone] + O
molar heat capacity at constant pressure [J/K/mol]
Conditions | x1 = 0.0999 | x1 = 0.1998 | x1 = 0.2984 | x1 = 0.3979 | x1 = 0.4961 | x1 = 0.5981 | x1 = 0.6917 | x1 = 0.799 | x1 = 0.8946 | x1 = 1
303.15 K | 90 ± 4 | 102 ± 4 | 113 ± 5 | 122 ± 5 | 129 ± 6 | 137 ± 6 | 144 ± 6 | 152 ± 6 | 158 ± 7 | 166 ± 7
308.15 K | 90 ± 4 | 103 ± 4 | 114 ± 5 | 123 ± 5 | 131 ± 6 | 138 ± 6 | 146 ± 6 | 153 ± 7 | 160 ± 7 | 167 ± 7
313.15 K | 91 ± 4 | 104 ± 4 | 115 ± 5 | 124 ± 5 | 132 ± 6 | 140 ± 6 | 147 ± 6 | 154 ± 7 | 161 ± 7 | 168 ± 7
318.15 K | 91 ± 4 | 105 ± 4 | 116 ± 5 | 125 ± 5 | 133 ± 6 | 141 ± 6 | 148 ± 6 | 155 ± 7 | 162 ± 7 | 169 ± 7
323.15 K | 92 ± 4 | 105 ± 4 | 118 ± 5 | 127 ± 5 | 135 ± 6 | 142 ± 6 | 150 ± 6 | 157 ± 7 | 164 ± 7 | 170 ± 7
328.15 K | 92 ± 4 | 106 ± 5 | 119 ± 5 | 128 ± 5 | 136 ± 6 | 144 ± 6 | 151 ± 6 | 158 ± 7 | 165 ± 7 | 172 ± 7
333.15 K | 93 ± 4 | 107 ± 5 | 120 ± 5 | 129 ± 6 | 138 ± 6 | 145 ± 6 | 153 ± 7 | 160 ± 7 | 166 ± 7 | 174 ± 7
338.15 K | 93 ± 4 | 108 ± 5 | 121 ± 5 | 131 ± 6 | 139 ± 6 | 147 ± 6 | 154 ± 7 | 161 ± 7 | 168 ± 7 | 175 ± 7
343.15 K | 94 ± 4 | 109 ± 5 | 122 ± 5 | 132 ± 6 | 141 ± 6 | 149 ± 6 | 156 ± 7 | 163 ± 7 | 169 ± 7 | 176 ± 7
348.15 K | 95 ± 4 | 110 ± 5 | 123 ± 5 | 133 ± 6 | 142 ± 6 | 150 ± 6 | 157 ± 7 | 164 ± 7 | 170 ± 7 | 177 ± 8
353.15 K | 95 ± 4 | 110 ± 5 | 124 ± 5 | 134 ± 6 | 142 ± 6 | 151 ± 6 | 158 ± 7 | 165 ± 7 | 170 ± 7 | 178 ± 8

O=S1(=O)CCCC1 [sulfolane] + O
molar heat capacity at constant pressure [J/K/mol]
Conditions | x1 = 0.0999 | x1 = 0.1998 | x1 = 0.2987 | x1 = 0.3995 | x1 = 0.4945 | x1 = 0.5987 | x1 = 0.6984 | x1 = 0.7904 | x1 = 0.8865 | x1 = 1
303.15 K | 87 ± 4 | 100 ± 4 | 112 ± 5 | 124 ± 5 | 135 ± 6 | 145 ± 6 | 155 ± 7 | 164 ± 7 | 173 ± 7 | 182 ± 8
308.15 K | 88 ± 4 | 100 ± 4 | 113 ± 5 | 125 ± 5 | 136 ± 6 | 147 ± 6 | 156 ± 7 | 166 ± 7 | 175 ± 7 | 184 ± 8
313.15 K | 88 ± 4 | 101 ± 4 | 114 ± 5 | 126 ± 5 | 137 ± 6 | 148 ± 6 | 157 ± 7 | 167 ± 7 | 176 ± 7 | 185 ± 8
318.15 K | 88 ± 4 | 102 ± 4 | 114 ± 5 | 127 ± 5 | 138 ± 6 | 149 ± 6 | 159 ± 7 | 168 ± 7 | 177 ± 8 | 186 ± 8
323.15 K | 89 ± 4 | 102 ± 4 | 115 ± 5 | 128 ± 5 | 139 ± 6 | 150 ± 6 | 160 ± 7 | 170 ± 7 | 179 ± 8 | 188 ± 8
328.15 K | 89 ± 4 | 103 ± 4 | 116 ± 5 | 129 ± 6 | 141 ± 6 | 152 ± 6 | 162 ± 7 | 172 ± 7 | 181 ± 8 | 189 ± 8
333.15 K | 89 ± 4 | 104 ± 4 | 117 ± 5 | 130 ± 6 | 142 ± 6 | 153 ± 7 | 164 ± 7 | 173 ± 7 | 183 ± 8 | 191 ± 8
338.15 K | 90 ± 4 | 104 ± 4 | 118 ± 5 | 131 ± 6 | 143 ± 6 | 155 ± 7 | 165 ± 7 | 175 ± 7 | 184 ± 8 | 193 ± 8
343.15 K | 90 ± 4 | 105 ± 4 | 119 ± 5 | 132 ± 6 | 144 ± 6 | 156 ± 7 | 167 ± 7 | 177 ± 8 | 186 ± 8 | 194 ± 8
348.15 K | 91 ± 4 | 106 ± 5 | 120 ± 5 | 133 ± 6 | 146 ± 6 | 158 ± 7 | 169 ± 7 | 179 ± 8 | 188 ± 8 | 197 ± 8
353.15 K | 91 ± 4 | 107 ± 5 | 121 ± 5 | 135 ± 6 | 148 ± 6 | 160 ± 7 | 171 ± 7 | 181 ± 8 | 191 ± 8 | 199 ± 8
